# Where two headings read alike, the source gives them in different places.
# How the values were obtained:
# [1] = system: adult subjects with TRD; assay type: in vivo, human; conditions: for Non-responders % / Non-responders N / Responders % (MADRS total score reduction >50% TRD2001, ≥50% TRD2002) / Responders N (MADRS total score reduction >50% TRD2001, ≥50% TRD2002): after first infusion (Day 2 TRD2001, Day 3 or 4 TRD2002)
# Procedure: (§1) Association between changes in MADRS total score from baseline and the SNP rs6265 after a single dose was evaluated in placebo subjects and active subjects using an ANCOVA model under a dominant model with baseline MADRS total score, and grouped genotype (Val/Val or Met carrier). A statistically significant result was found in active subjects (p=0.02).
# as §1, with “the % responders” for “changes in MADRS total score from baseline”, “a logistic regression” for “an ANCOVA”, “score” for “score,”, “(p=0.03).” for “(p=0.02).”
# Association between the % remitters and the SNP rs6265 after a single dose was evaluated in placebo subjects and as well as in active subjects using a logistic regression model under a dominant model with baseline MADRS total score and grouped genotype (Val/Val or Met carrier).
# [2] = system: NMDA receptor; conditions: S-enantiomer compared with ketamine; cited from earlier work
# [3] = system: adult subjects with TRD; conditions: for Day 17 responders who maintained response status up to Day 35, % / Day 17 responders who maintained response status up to Day 35, number: esketamine subjects per Day 1 randomization
# [4] = Met carriers, DAY 02, randomized to esketamine Day 1
# [5] = Met carriers, DAY 07, randomized to esketamine Day 1
# [6] = Met carriers, DAY 07, randomized to placebo Day 1, esketamine from day 4 onward
# [7] = Met carriers, DAY 17, randomized to esketamine Day 1
# [8] = Met carriers, DAY 17, randomized to placebo Day 1, esketamine from day 4 onward
# [9] = Met carriers, DAY 35, randomized to esketamine Day 1
# [10] = Met carriers, DAY 35, randomized to placebo Day 1, esketamine from day 4 onward
# [11] = Met carriers, Day 0 after Day 17, all responders (Day 17)
# [12] = Met carriers, Day 0 after Day 17, esketamine responders (Day 17) per Day 1 randomization
# [13] = Met carriers, Day 4 after Day 17, all responders (Day 17)
# [14] = Met carriers, Day 4 after Day 17, esketamine responders (Day 17) per Day 1 randomization
# [15] = Met carriers, Day 18 after Day 17, all responders (Day 17)
# [16] = Met carriers, Day 18 after Day 17, esketamine responders (Day 17) per Day 1 randomization
# [17] = Val/Val (of 7), 18 days after last dose
# [18] = Val/Val, DAY 02, randomized to esketamine Day 1
# [19] = Val/Val, DAY 07, randomized to esketamine Day 1
# [20] = Val/Val, DAY 07, randomized to placebo Day 1, esketamine from day 4 onward
# [21] = Val/Val, DAY 17, randomized to esketamine Day 1
# [22] = Val/Val, DAY 17, randomized to placebo Day 1, esketamine from day 4 onward
# [23] = Val/Val, DAY 35, randomized to esketamine Day 1
# [24] = Val/Val, DAY 35, randomized to placebo Day 1, esketamine from day 4 onward
# [25] = Val/Val, Day 0 after Day 17, all responders (Day 17)
# [26] = Val/Val, Day 0 after Day 17, esketamine responders (Day 17) per Day 1 randomization
# [27] = Val/Val, Day 11 after Day 17, all responders (Day 17)
# [28] = esketamine subjects, Days 2, 7, 17 and 35
smiles,measurement,setting,value
"CN[C@]1(c2ccccc2Cl)CCCCC1=O.Cl [Esketamine, (S)-2-(2-chlorophenyl)-2-(methylamino)cyclohexanone hydrochloride]",Non-responders %,[1]; Met carriers,88.9%
same,Non-responders N,[1]; Met carriers,8
same,"Responders % (MADRS total score reduction >50% TRD2001, ≥50% TRD2002)",[1]; Met carriers,11.1%
same,"Responders N (MADRS total score reduction >50% TRD2001, ≥50% TRD2002)",[1]; Met carriers,1
same,Non-responders %,[1]; Val/Val,25.0%
same,Non-responders N,[1]; Val/Val,2
same,"Responders % (MADRS total score reduction >50% TRD2001, ≥50% TRD2002)",[1]; Val/Val,75.0%
same,"Responders N (MADRS total score reduction >50% TRD2001, ≥50% TRD2002)",[1]; Val/Val,6
same,Clinical response associated with Met allele of Val66Met rs6265,"[1]; acute, single dose administration",smaller clinical response
same,Potency or affinity for the NMDA receptor,[2],higher potency or affinity
same,"Maintenance of remission, Val/Val vs Met carriers",[3]; Day 35,Remission was maintained longer in Val/Val than in Met carriers
same,"Subjects who remained well, number","[3]; Met carrier group, at Day 21, from 6",3
same,"Day 17 responders who maintained response status up to Day 35, %",[3]; Met carriers (of 6),33.3%
same,"Day 17 responders who maintained response status up to Day 35, number",[3]; Met carriers (of 6),2
same,Non-remitters %,[3]; [4],88.9%
same,Non-remitters No.,[3]; [4],8
same,Non-responders %,[3]; [4],88.9%
same,Non-responders No.,[3]; [4],8
same,Remitters % (MADRS total score 10),[3]; [4],11.1%
same,Remitters No. (MADRS total score 10),[3]; [4],1
same,Responders % (MADRS total score reduction >50%),[3]; [4],11.1%
same,Responders No. (MADRS total score reduction >50%),[3]; [4],1
same,Non-remitters %,[3]; [5],77.8%
same,Non-remitters No.,[3]; [5],7
same,Non-responders %,[3]; [5],66.7%
same,Non-responders No.,[3]; [5],6
same,Remitters % (MADRS total score 10),[3]; [5],22.2%
same,Remitters No. (MADRS total score 10),[3]; [5],2
same,Responders % (MADRS total score reduction >50%),[3]; [5],33.3%
same,Responders No. (MADRS total score reduction >50%),[3]; [5],3
same,Non-remitters %,[3]; [6],100.0%
same,Non-remitters No.,[3]; [6],1
same,Non-responders No.,[3]; [6],0
same,Remitters No. (MADRS total score 10),[3]; [6],0
same,Responders % (MADRS total score reduction >50%),[3]; [6],100.0%
same,Responders No. (MADRS total score reduction >50%),[3]; [6],1
same,Non-remitters %,[3]; [7],77.8%
same,Non-remitters No.,[3]; [7],7
same,Non-responders %,[3]; [7],33.3%
same,Non-responders No.,[3]; [7],3
same,Remitters % (MADRS total score 10),[3]; [7],22.2%
same,Remitters No. (MADRS total score 10),[3]; [7],2
same,Responders % (MADRS total score reduction >50%),[3]; [7],66.7%
same,Responders No. (MADRS total score reduction >50%),[3]; [7],6
same,Non-remitters No.,[3]; [8],0
same,Non-responders No.,[3]; [8],0
same,Remitters % (MADRS total score 10),[3]; [8],100.0%
same,Remitters No. (MADRS total score 10),[3]; [8],1
same,Responders % (MADRS total score reduction >50%),[3]; [8],100.0%
same,Responders No. (MADRS total score reduction >50%),[3]; [8],1
same,Non-remitters %,[3]; [9],77.8%
same,Non-remitters No.,[3]; [9],7
same,Non-responders %,[3]; [9],55.6%
same,Non-responders No.,[3]; [9],5
same,Remitters % (MADRS total score 10),[3]; [9],22.2%
same,Remitters No. (MADRS total score 10),[3]; [9],2
same,Responders % (MADRS total score reduction >50%),[3]; [9],44.4%
same,Responders No. (MADRS total score reduction >50%),[3]; [9],4
same,Non-remitters No.,[3]; [10],0
same,Non-responders No.,[3]; [10],0
same,Remitters % (MADRS total score 10),[3]; [10],100.0%
same,Remitters No. (MADRS total score 10),[3]; [10],1
same,Responders % (MADRS total score reduction >50%),[3]; [10],100.0%
same,Responders No. (MADRS total score reduction >50%),[3]; [10],1
same,"Duration of response, survival function estimate: Failure",[3]; [11],0
same,"Duration of response, survival function estimate: Survival",[3]; [11],1.0000
same,"Duration of response, survival function estimate: Failure",[3]; [12],0
same,"Duration of response, survival function estimate: Survival",[3]; [12],1.0000
same,"Duration of response, survival function estimate: Failure",[3]; [13],0.4286
same,"Duration of response, survival function estimate: Survival",[3]; [13],0.5714
same,"Duration of response, survival function estimate: Failure",[3]; [14],0.5000
same,"Duration of response, survival function estimate: Survival",[3]; [14],0.5000
same,"Duration of response, survival function estimate: Failure",[3]; [15],0.5714
same,"Duration of response, survival function estimate: Survival",[3]; [15],0.4286
same,"Duration of response, survival function estimate: Failure",[3]; [16],0.6667
same,"Duration of response, survival function estimate: Survival",[3]; [16],0.3333
same,"Day 17 responders who maintained response status up to Day 35, %",[3]; [17],100%
same,"Day 17 responders who maintained response status up to Day 35, number",[3]; [17],7
same,Non-remitters %,[3]; [18],37.5%
same,Non-remitters No.,[3]; [18],3
same,Non-responders %,[3]; [18],25.0%
same,Non-responders No.,[3]; [18],2
same,Remitters % (MADRS total score 10),[3]; [18],62.5%
same,Remitters No. (MADRS total score 10),[3]; [18],5
same,Responders % (MADRS total score reduction >50%),[3]; [18],75.0%
same,Responders No. (MADRS total score reduction >50%),[3]; [18],6
same,Non-remitters %,[3]; [19],25.0%
same,Non-remitters No.,[3]; [19],2
same,Non-responders %,[3]; [19],25.0%
same,Non-responders No.,[3]; [19],2
same,Remitters % (MADRS total score 10),[3]; [19],75.0%
same,Remitters No. (MADRS total score 10),[3]; [19],6
same,Responders % (MADRS total score reduction >50%),[3]; [19],75.0%
same,Responders No. (MADRS total score reduction >50%),[3]; [19],6
same,Non-remitters %,[3]; [20],42.9%
same,Non-remitters No.,[3]; [20],3
same,Non-responders %,[3]; [20],28.6%
same,Non-responders No.,[3]; [20],2
same,Remitters % (MADRS total score 10),[3]; [20],57.1%
same,Remitters No. (MADRS total score 10),[3]; [20],4
same,Responders % (MADRS total score reduction >50%),[3]; [20],71.4%
same,Responders No. (MADRS total score reduction >50%),[3]; [20],5
same,Non-remitters %,[3]; [21],12.5%
same,Non-remitters No.,[3]; [21],1
same,Non-responders %,[3]; [21],12.5%
same,Non-responders No.,[3]; [21],1
same,Remitters % (MADRS total score 10),[3]; [21],87.5%
same,Remitters No. (MADRS total score 10),[3]; [21],7
same,Responders % (MADRS total score reduction >50%),[3]; [21],87.5%
same,Responders No. (MADRS total score reduction >50%),[3]; [21],7
same,Non-remitters %,[3]; [22],57.1%
same,Non-remitters No.,[3]; [22],4
same,Non-responders %,[3]; [22],28.6%
same,Non-responders No.,[3]; [22],2
same,Remitters % (MADRS total score 10),[3]; [22],42.9%
same,Remitters No. (MADRS total score 10),[3]; [22],3
same,Responders % (MADRS total score reduction >50%),[3]; [22],71.4%
same,Responders No. (MADRS total score reduction >50%),[3]; [22],5
same,Non-remitters %,[3]; [23],12.5%
same,Non-remitters No.,[3]; [23],1
same,Non-responders %,[3]; [23],12.5%
same,Non-responders No.,[3]; [23],1
same,Remitters % (MADRS total score 10),[3]; [23],87.5%
same,Remitters No. (MADRS total score 10),[3]; [23],7
same,Responders % (MADRS total score reduction >50%),[3]; [23],87.5%
same,Responders No. (MADRS total score reduction >50%),[3]; [23],7
same,Non-remitters %,[3]; [24],42.9%
same,Non-remitters No.,[3]; [24],3
same,Non-responders %,[3]; [24],42.9%
same,Non-responders No.,[3]; [24],3
same,Remitters % (MADRS total score 10),[3]; [24],57.1%
same,Remitters No. (MADRS total score 10),[3]; [24],4
same,Responders % (MADRS total score reduction >50%),[3]; [24],57.1%
same,Responders No. (MADRS total score reduction >50%),[3]; [24],4
same,"Duration of response, survival function estimate: Failure",[3]; [25],0
same,"Duration of response, survival function estimate: Survival",[3]; [25],1.0000
same,"Duration of response, survival function estimate: Failure",[3]; [26],0
same,"Duration of response, survival function estimate: Survival",[3]; [26],1.0000
same,"Duration of response, survival function estimate: Failure",[3]; [27],0.0833
same,"Duration of response, survival function estimate: Survival",[3]; [27],0.9167
same,"Subjects who remain well, number","[3]; Val/Val, by Day 35, of 7",7
same,"Responders on Day 17, number",[3]; all esketamine subjects per Day 1 randomization (Val/Val and Met carriers),13
same,"Remit rates, Val/Val vs Met carriers",[3]; [28],remit rates were higher in Val/Val subjects than in Met carriers at all timepoints
same,"Response rates, Val/Val vs Met carriers",[3]; [28],response rates were higher in Val/Val subjects than in Met carriers
